The values that follow come from patent US5652366A, “DI (1R)-(-)camphosulfonic acid) salt, preparation thereof and use thereof” (Rhone-Poulenc Rorer Pharmaceuticals Inc., priority 1995, dated 1997).

One assay addresses T1, A1 adenosine receptor (Rattus norvegicus, UniProt P25099).
T1 sequence (P25099 1-326): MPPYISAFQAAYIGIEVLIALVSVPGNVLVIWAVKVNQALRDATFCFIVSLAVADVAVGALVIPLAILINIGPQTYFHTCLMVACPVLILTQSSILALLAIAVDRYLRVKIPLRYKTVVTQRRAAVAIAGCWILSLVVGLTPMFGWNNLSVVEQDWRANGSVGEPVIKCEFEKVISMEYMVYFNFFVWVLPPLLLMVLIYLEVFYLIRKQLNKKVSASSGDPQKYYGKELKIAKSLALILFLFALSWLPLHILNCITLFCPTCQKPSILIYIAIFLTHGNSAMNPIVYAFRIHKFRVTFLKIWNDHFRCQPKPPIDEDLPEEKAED
Put plainly: biochemical. The conditions noted are these: rat whole brain membranes, 3H-CHA; Table II; read-out: Adenosine Receptor Binding Activity/IC50 (nM) A1. The method, then: Non-specific binding was assessed in the presence of 1 mM theophylline.
The assays were run in glass test tubes in duplicate at 25° C. Once the membranes were added, the tubes were vortexed and incubated at 25° C. for 60 minutes (A1 assay) or 90 minutes (A2 assay) on a rotary shaker. The assay tubes were vortexed halfway through the incubation and again near the end. The assays were terminated by rapid filtration through 2.4 cm GF/B filters using a Brandel Cell Harvestor. The test tubes were washed three times with cold 50 mM tris-HCl (pH 7.7 or 7.4), with filtration being completed within 15 seconds. The damp filter circles were placed in glass scintillation vials filled with 10 ml of Aquasol II (New England Nuclear). The vials were allowed to shake overnight on a rotary shaker and were placed into a liquid scintillation analyzer for two minute counts. IC50 values for receptor binding, i.e. the concentration at which a compound of the invention displaced the radiolabeled standard, were obtained using a curve-fitting computer program (RS/1, Bolt, Beranek and Newman, Boston, Mass.).

The target of another assay is A2 adenosine receptor (Rattus norvegicus, UniProt P30543). Put plainly: biochemical. The conditions noted are these: rat brain striatum membranes, 3H-CGS 21680; Table II; read-out: Adenosine Receptor Binding Activity/IC50 (nM) A2.
A further assay deals with swine coronary arteries. Put plainly: In vitro vasorelaxation in isolated swine coronary arteries (PGF2α-contracted rings). Type of assay: cell-based. The conditions noted are these: Sus scrofa; for EC50: Table II. The method, then:
Swine coronary arteries were obtained from a local slaughter house, dissected carefully and cleaned of fat, blood and adhering tissue. Rings approximately 2-3 mm wide were cut and transferred to water-jacketed tissue baths (10 ml) filled with warm (37° C.), oxygenated (O2 /CO2 :95%/5%) Krebs-Henseleit buffer and mounted on L-shaped hooks between stainless steel rods and a force transducer. […] Rings were equilibrated for 90 minutes with frequent buffer changes at a resting tension of 5 g In order to assure optimal tension development, arterial rings were primed twice with 36 mM KCl and once with 10 μm. PGF2α, before being exposed to 3 μM PGF2α. […] Tension achieved with 3 μM PGF2α was considered .equivalent to 100%; all other values were expressed as a percentage of that maximum.

Assay [1] concerns normotensive anesthetized rat. Put plainly: In vivo mean arterial pressure and heart rate in normotensive anesthetized rat. Particulars: iv. The method, then:
Normotensive rats were anesthetized with sodium pentobarbital (50 mg/kg, j.p.) and placed on a heated surgical table. Cannulas were inserted into the femoral artery and […] to allow the measurement of arterial pressure and to facilitate the intravenous administration of test compounds. The animals was allowed to equilibrate for 10 minutes after surgery. Mean arterial pressure was continuously measured and recorded and heart rate was monitored using the arterial pressure pulse to trigger a cardiotachometer. After baseline parameters were established and recorded, increasing doses (1, 3, 10, 30, 100, 300 and 1000 μg/kg) of the compound of the invention to be tested were administered intravenously. Maximal changes in the cardiovascular parameters were observed after each dose of the adenosine agonist. Only one compound was administered per rat.

The subject of the next assay is rat adipocytes. Put plainly: In vitro lipolysis assay in rat adipocytes (glycerol production). Type of assay: cell-based. The conditions noted are these: Rattus norvegicus, Adipocyte. The method, then: Adipose tissue is removed from anesthetized rats and rinsed twice in incubation medium (2.09 g sodium bicarbonate and 0.04 g EDTA, disodium salt, in 1 L Krebs buffer). Each rat (300-350 g) yields approximately 4 ml of adipose tissue. The adipose tissue (35 ml) is cut into small pieces with scissors and washed with incubation medium (50 ml). The mixture is poured into the barrel of a 50 ml syringe to which is attached a short piece of clamped tubing instead of a needle. The aqueous phase is allowed to drain. A second wash with incubation medium is passed through the syringe. The tissue is added to 50 ml of collagenase solution (collagenase(90 mg), bovine serum albumin (BSA) (500 mg), and 0.1 M calcium chloride solution (1 ml), in incubation medium (50 ml)) in a 1 L bottle. The mixture is shaken in an environmental at 37° C. for about 60 minutes under an atmosphere of 95% oxygen/5% carbon dioxide to effect digestion of the tissue. The dispersed cells are poured through 2 layers of cheese cloth into a 100 ml plastic beaker. The undigested clumps in the cloth are rinsed once with incubation medium (20 ml). The cells in the beaker are centrifuged in 2 plastic tubes for 30 seconds at room temperature at 300 rpm. The aqueous phase is aspirated from beneath the loosely packed layer of floating fat cells and discarded. The adipocytes are gently poured into a 250 ml plastic beaker containing 100 ml of rinse solution (1 g BSA per 100 ml incubation medium). After gentle stirring the centrifugation step is repeated. Another wash with rinse solution follows. The cells are pooled and their volume is estimated with a graduated cylinder. The adipocytes are diluted in twice their volume of assay buffer (incubation medium (120 ml), BSA (1.2 g), pyruvic acid (13 mg)).
The assay is performed in 20 ml plastic scintillation vials and the total assay volume is 4.2 ml. Assay buffer (2.5 ml), diluted adipocytes (1.5 ml), and a solution of the compound to be tested (12.3 μL) adenosine agonist (12.3 μl; varying concentration) is incubated in the environmental shaker for 15 minutes, then the reaction is started with norepinephrine solution (41.2 μL) (10 nM, in a carrier solution containing water (100 ml), BSA (4 mg), and 0.1 M EDTA (20 I. LL))and adenosine deaminase (1 μg/ml, 41.2 μl). After sixty minutes in the shaker the reaction is terminated by putting the vials on ice. […] The hard lipid layer is removed by aspiration and the aqueous layer is assayed for glycerol (400 μl of sample). The positive control is done in the absence of any adenosine agonist, substituting water in place of the solution to be tested.

Where [2] appears, read: 50% reduction in tension, 3 μM PGF2α, read-out: Vasorelaxation in Swine Coronary Artery/IC50.
The mark [3] stands for this setting: dose lowering heart rate by 25%, read-out: Blood Press/Heart Rate Anesthetized Rat HR/ED25.
The mark [4] stands for this setting: dose lowering mean arterial pressure by 25%, read-out: Blood Press/Heart Rate Anesthetized Rat MAP/ED25.
Setting [5] is: read-out: % Inhibition of glycerol production.

The structures appear in SMILES notation. Where two headings read alike, the source gives them in different places. Bounds are passed on as bounds.

A2 adenosine receptor, sequence (P30543 whole entry): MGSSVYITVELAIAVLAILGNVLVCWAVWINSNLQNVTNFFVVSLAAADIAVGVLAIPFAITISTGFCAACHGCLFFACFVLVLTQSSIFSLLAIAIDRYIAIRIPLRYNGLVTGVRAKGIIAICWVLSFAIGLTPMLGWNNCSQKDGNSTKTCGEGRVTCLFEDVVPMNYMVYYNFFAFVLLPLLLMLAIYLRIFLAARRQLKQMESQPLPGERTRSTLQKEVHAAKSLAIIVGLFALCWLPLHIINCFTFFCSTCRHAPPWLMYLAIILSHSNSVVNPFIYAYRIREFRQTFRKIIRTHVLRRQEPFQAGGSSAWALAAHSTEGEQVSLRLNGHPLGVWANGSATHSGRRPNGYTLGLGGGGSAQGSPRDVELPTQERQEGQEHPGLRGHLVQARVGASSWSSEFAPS

Take `CCNC(=O)[C@H]1C[C@@H](n2cnc3c(N[C@H](C)Cc4ccc(Cl)s4)ccnc32)[C@H](O)[C@@H]1O` [Example 36, [1S-[1α,2β,3β,4α(S*)]]-4-[7-[[2-(5-chloro-2-thienyl)-1-methylethyl]amino]-3 H-imidazo[4,5-b]pyridin-3-yl]-N-ethyl-2,3-dihydroxycyclopentanecarboxamide]: the IC50 came out at 8.8 nM at A1 adenosine receptor and 43.4 nM on A2 adenosine receptor. Besides, the EC50 in the assay on swine coronary arteries (setting [2]) was 0.493 µM.

As to `C[C@H](Cc1sccc1Cl)Nc1ncnc2c1ncn2[C@@H]1O[C@H](CO)[C@@H](O)[C@H]1O` [Example 32, N^6-[1-methyl-2-(3-chlorothien-2-yl)ethyl]adenosine], at A1 adenosine receptor, the IC50 is 0.049 nM.

With `Cc1ncsc1CCNc1ncnc2c1ncn2[C@@H]1O[C@H](CO)[C@@H](O)[C@H]1O` [Example 12, N^6-[2-(4'-methylthiazol-5'-yl)-ethyl]adenosine], the IC50 on A1 adenosine receptor stood at 23 nM; at A2 adenosine receptor, 224 nM. Besides, the EC50 with swine coronary arteries (setting [2]) is 0.5 µM. The ED25 in assay [1] (setting [3]) was 17 µg/kg; in assay [1] (setting [4]) it was 4 µg/kg.

For the molecule `OC[C@H]1O[C@@H](n2cnc3c(NCCNc4nc5ccccc5s4)ncnc32)[C@H](O)[C@@H]1O` [Example 9, N^6-[2-(2'-aminobenzothia-zolyl)ethyl]adenosine], the IC50 was found to be 4 nM at A1 adenosine receptor and 1000 nM at A2 adenosine receptor. In the assay on swine coronary arteries (setting [2]), the EC50 came out at 11.9 µM. The results for the ED25 in assay [1] (setting [3]) and in assay [1] (setting [4]) were 4 µg/kg and 5 µg/kg, respectively.

In the case of `CCNC(=O)[C@H]1C[C@@H](n2cnc3c(N[C@H](C)Cc4ccc(Cl)s4)ncnc32)[C@@H]2OC(C)(C)O[C@@H]21` [6(1), (-)-[2S-[2α,3α-dimethylmethylenedioxy-4-β-[N6-[2-(5-chloro-2-thienyl)-(1R)-1-methylethyl]amino]-9-adenyl]cyclopentane]-1-β-N-ethylcarboxamide], the IC50 on A1 adenosine receptor and on A2 adenosine receptor was greater than 1000 nM each time. In the assay with swine coronary arteries (setting [2]), the EC50 was determined as 19.1 µM.

Turning to `CCNC(=O)[C@H]1C[C@@H](n2cnc3c(N[C@H](C)Cc4ccc(Cl)s4)ncnc32)[C@@H]2OC(=O)O[C@@H]21` [Example 44, (2S)-2α,3α-dihydroxy-4β-[N6-[2-(5-chloro-2-thienyl)-(1R)-1-methylethyl]amino-9-adenyl]cyclopentane-1β-N-ethylcarboxamide-2,3-carbonate], the IC50 on A1 adenosine receptor was found to be 55 nM; at A2 adenosine receptor, 331 nM. Besides, the EC50 with swine coronary arteries (setting [2]) worked out at 0.316 µM.

Take `OC[C@H]1O[C@@H](n2cnc3c(NCCc4nccs4)ncnc32)[C@H](O)[C@@H]1O` [Example 13, N^6-[2-(2'-thiazolyl)ethyl]-adenosine]: the IC50 at A1 adenosine receptor stood at 41 nM; on A2 adenosine receptor, 191 nM. In addition, the EC50 in the assay on swine coronary arteries (setting [2]) is 0.24 µM. Moreover, the figures for the ED25 in assay [1] (setting [3]) and in assay [1] (setting [4]) were greater than 10 µg/kg and 3 µg/kg, respectively.

For `Cc1nc(CCNc2ncnc3c2ncn3[C@@H]2O[C@H](CO)[C@@H](O)[C@H]2O)cs1` [Example 14, N^6-[2-(2'-methyl-4'-thiazolyl)-ethyl]adenosine], the figures for the IC50 on A1 adenosine receptor and on A2 adenosine receptor were 79.4 nM and greater than 1000 nM, respectively.

On to `CCNC(=O)[C@H]1O[C@@H](n2cnc3c(NCCNc4nc5ccccc5s4)ncnc32)[C@H](O)[C@@H]1O` [Example 23], for which the IC50 at A1 adenosine receptor amounted to 0.32 nM; at A2 adenosine receptor, 891 nM. The EC50 in the assay with swine coronary arteries (setting [2]) stood at 4.4 µM. The ED25 was 7 µg/kg in assay [1] (setting [3]) and 6 µg/kg in assay [1] (setting [4]).

On to `CC(C)(Cc1cccs1)Nc1ncnc2c1ncn2[C@@H]1O[C@H](CO)[C@@H](O)[C@H]1O` [Example 17, N^6-[2-(1,1-dimethyl-2'-thiophenyl)ethyl]adenosine], for which the IC50 on A1 adenosine receptor stood at 67.6 nM; at A2 adenosine receptor it was 5250 nM. The EC50 in the assay with swine coronary arteries (setting [2]) was determined as 18.8 µM.

With `Cc1csc(CNc2ncnc3c2ncn3[C@@H]2O[C@H](CO)[C@@H](O)[C@H]2O)n1` [Example 18, N^6-[2-(4'-methyl-2'-thiazolyl)-methyl]adenosine], the IC50 at A1 adenosine receptor was found to be 166 nM; at A2 adenosine receptor it was 52 nM. Further, in the assay with swine coronary arteries (setting [2]), the EC50 was 0.46 µM. The ED25 was greater than 10 µg/kg in assay [1] (setting [3]) and 2 µg/kg in assay [1] (setting [4]).

As for `CCOc1ccc2nc(SCCNc3ncnc4c3ncn4[C@@H]3O[C@H](CO)[C@@H](O)[C@H]3O)sc2c1` [Example 11], the IC50 on A1 adenosine receptor was 7.4 nM; on A2 adenosine receptor, greater than 1000 nM.

Broadly, the inhibition is the relative decrease from the control value, in per cent. As for `OC[C@H]1O[C@@H](n2cnc3c(NC4CCCC4)ncnc32)[C@H](O)[C@@H]1O` [CPA, N-cyclopentyladenosine, reference compound], in the assay with swine coronary arteries (read-out: Vasorelaxation (IC50)), the IC50 came to 3180 nM. In addition, in the assay on rat adipocytes (setting [5]), the inhibition at 0.1 µM was 97% and the inhibition at 1 µM was determined as 100%. Moreover, the EC50 in the assay on rat adipocytes (read-out: EC50 (50% inhibition of glycerol production)) came out at 0.31 nM.

For `OC[C@H]1O[C@@H](n2cnc3c(NCc4nc(-c5ccccc5)cs4)ncnc32)[C@H](O)[C@@H]1O` [Example 19], the IC50 at A1 adenosine receptor stood at 36 nM; on A2 adenosine receptor, 1000 nM. Besides, the EC50 with swine coronary arteries (setting [2]) worked out at 0.75 µM.

Consider `C[C@H](Cc1cc2ccccc2s1)Nc1ncnc2c1ncn2[C@@H]1O[C@H](CO)[C@@H](O)[C@H]1O` [Example 15, N^6-[(R)-1-methyl-2-(2'benzo-[b]-thiophenyl)ethyl]adenosine], for which the IC50 on A2 adenosine receptor came out at 1000 nM. The EC50 in the assay on swine coronary arteries (read-out: Vasorelaxation in Swine Coronary Artery/IC50 (μM), 50% reduction in tension, 3 μM PGF2α) was determined as 2.45 µM. In addition, the ED25 in assay [1] (setting [3]) worked out at 1.4 µg/kg; in assay [1] (setting [4]) it was 1.5 µg/kg.

Consider `CCNC(=O)[C@H]1C[C@@H](n2cnc3c(N[C@H](CC)Cc4sccc4Cl)ncnc32)[C@H](O)[C@@H]1O` [Example 34], for which the IC50 was determined as 1.6 nM at A1 adenosine receptor and 23 nM at A2 adenosine receptor. Moreover, the EC50 in the assay on swine coronary arteries (setting [2]) was 0.072 µM.
